Measured values as given in ChEMBL document CHEMBL4396891, “Recent update on anti-dengue drug discovery” (Eur J Med Chem, 2019).
Converted amounts (≈) assume the structure as drawn.

How the values were obtained:
[1] = test system: dengue virus type 1; experiment: Antiviral activity against DENV1 infected in African green monkey Vero cells assessed as virus yield reduction after 48 hrs by measuring plaque forming units titration; type: functional, organism-based
[2] = test system: dengue virus type 4; experiment: Antiviral activity against DENV4 infected in African green monkey Vero cells assessed as virus yield reduction after 48 hrs by measuring plaque forming units titration; type: functional, organism-based
[3] = test system: dengue virus type 2; experiment: Antiviral activity against DENV2 infected in African green monkey Vero cells assessed as virus yield reduction after 48 hrs by measuring plaque forming units titration; type: functional, organism-based
[4] = test system: dengue virus type 3; experiment: Antiviral activity against DENV3 infected in African green monkey Vero cells assessed as virus yield reduction after 48 hrs by measuring plaque forming units titration; type: functional, organism-based
[5] = test system: dengue virus type 3; experiment: Antiviral activity against DENV3 00-40 infected in African green monkey Vero cells after 3 days by focus reduction assay; type: functional, organism-based; conditions: 00-40, Vero, 72 h
[6] = test system: dengue virus type 2; experiment: Antiviral activity against DENV2 16681 infected in African green monkey Vero cells after 3 days by focus reduction assay; type: functional, organism-based; conditions: Dengue virus, 16681, Vero, 72 h
[7] = test system: dengue virus type 4; experiment: Antiviral activity against DENV4 09-48 infected in African green monkey Vero cells after 3 days by focus reduction assay; type: functional, organism-based; conditions: 09-48, Vero, 72 h
[8] = test system: dengue virus type 1; experiment: Antiviral activity against DENV1 02-20 infected in African green monkey Vero cells after 3 days by focus reduction assay; type: functional, organism-based; conditions: 02-20, Vero, 72 h
[9] = molecular target: T1, Genome polyprotein (dengue virus type 2, UniProt P29990); experiment: Inhibition of DENV2 NS2B-NS3 serine protease expressed in human Huh7 cells after 3 days by Phospha-Light SEAP reporter gene Assay; type: cell-based
[10] = molecular target: T1, Genome polyprotein; experiment: Inhibition of His-tagged DENV2 NS2B-NS3 serine protease
[11] = test system: dengue virus type 2; experiment: Antiviral activity against DENV2 infected in human Huh-7 cells assessed as reduction in viral infection; type: functional, organism-based
[12] = molecular target: T1, Genome polyprotein; experiment: Inhibition of DENV2 NS2B-NS3 serine protease using Boc-GRR-AMC as substrate after 30 mins
[13] = test system: dengue virus type 2; experiment: Antiviral activity against DENV2 16681 infected in human Huh7 cells after 3 days by RT-qPCR analysis; type: functional, organism-based; conditions: Dengue virus, 16681, Huh-7, 72 h
[14] = molecular target: T1, Genome polyprotein; experiment: Inhibition of His-tagged DENV2 NS2B-NS3 serine protease expressed in baculovirus infected sf9 cells
[15] = test system: dengue virus type 2; experiment: Antiviral activity against DENV2 infected in BHK cells assessed as reduction in viral Yield at 20 uM after 48 hrs by fluorescence focus formation assay relative to control; type: functional; design: scale not given: the % may be the effect or the level left
[16] = test system: dengue virus type 2; experiment: Antiviral activity against DENV2 infected in human Huh7 cells assessed as reduction in viral Yield at 20 uM after 48 hrs by fluorescence focus formation assay relative to control; type: functional; design: scale not given: the % may be the effect or the level left
[17] = test system: dengue virus type 3; experiment: Antiviral activity against DENV3 infected in African green monkey Vero cells after 30 mins by immunofluorescence assay; type: functional, organism-based; conditions: 0.5 h
[18] = test system: dengue virus type 2; experiment: Antiviral activity against DENV2 infected in African green monkey Vero cells after 30 mins by immunofluorescence assay; type: functional, organism-based; conditions: 0.5 h
[19] = test system: dengue virus type 4; experiment: Antiviral activity against DENV4 infected in African green monkey Vero cells after 30 mins by immunofluorescence assay; type: functional, organism-based; conditions: 0.5 h
[20] = test system: dengue virus type 1; experiment: Antiviral activity against DENV1 infected in African green monkey Vero cells after 30 mins by immunofluorescence assay; type: functional, organism-based; conditions: 0.5 h
[21] = test system: dengue virus type 2; experiment: Antiviral activity against DENV2 infected in African green monkey Vero cells by focus formation unit reduction assay; type: functional, organism-based
[22] = test system: dengue virus type 2; experiment: Virucidal activity against DENV2; type: functional, organism-based
[23] = test system: Dengue virus; experiment: Antiviral activity against Dengue virus infected in human HepG2 cells assessed as viral production at 150 uM after 1 hrs by flow cytometry analysis relative to control; type: functional
[24] = test system: dengue virus type 1; experiment: Antiviral activity against DENV1 after 48 hrs by qRT-PCR analysis; type: functional, organism-based
[25] = test system: dengue virus type 3; experiment: Antiviral activity against DENV3 after 48 hrs by qRT-PCR analysis; type: functional, organism-based
[26] = test system: dengue virus type 2; experiment: Antiviral activity against DENV2 after 48 hrs by qRT-PCR analysis; type: functional, organism-based
[27] = test system: dengue virus type 4; experiment: Antiviral activity against DENV4 after 48 hrs by qRT-PCR analysis; type: functional, organism-based
[28] = test system: dengue virus type 2; experiment: Antiviral activity against DENV2 infected in BHK-21 cells; type: functional, organism-based
[29] = test system: dengue virus type 2; experiment: Antiviral activity against DENV2 infected in African green monkey Vero cells assessed as reduction in plaque formation after 72 hrs by 96-well based plaque titration method; type: functional, organism-based
[30] = test system: dengue virus type 2; experiment: Antiviral activity against DENV2 infected in monkey LLC-MK2 cells assessed as reduction in plaque formation after 72 hrs by 96-well based plaque titration method; type: functional, organism-based; conditions: LLC-MK2, 72 h
[31] = test system: dengue virus type 2; experiment: Antiviral activity against DENV2 ICC265 infected in human Huh7 cells assessed as reduction in viral titer by plaque assay; type: functional, organism-based; conditions: ICC265, Huh-7
[32] = test system: dengue virus type 2; experiment: Antiviral activity against DENV2 infected in monkey LLC-MK2 cells; type: functional, organism-based
[33] = test system: dengue virus type 2; experiment: Antiviral activity against DENV2 after 48 hrs by focus reduction assay; type: functional, organism-based
[34] = test system: dengue virus type 4; experiment: Antiviral activity against DENV4 after 48 hrs by focus reduction assay; type: functional, organism-based
[35] = test system: dengue virus type 3; experiment: Antiviral activity against DENV3 after 48 hrs by focus reduction assay; type: functional, organism-based
[36] = test system: dengue virus type 1; experiment: Antiviral activity against DENV1 after 48 hrs by focus reduction assay; type: functional, organism-based

SMILES: C=CCn1c2ccccc2c(=O)c2cc(Cl)ccc21
- EC50 [1]: 12.5 to 27.1 µM
- EC50 [2]: 12.5 to 27.1 µM
- EC50 [3]: 12.5 to 27.1 µM
- EC50 [4]: 12.5 to 27.1 µM

SMILES: CC(C)C[C@H]1C(=O)N2CCC[C@H]2[C@]2(O)O[C@](NC(=O)[C@@H]3C=C4c5cccc6[nH]c(Br)c(c56)C[C@H]4N(C)C3)(C(C)C)C(=O)N12 [BROMOCRIPTINE]
- EC50 [5]: 0.8 to 1.2 µM
- EC50 [6]: 0.8 to 1.2 µM
- EC50 [7]: 0.8 to 1.2 µM
- EC50 [8]: 1.6 µM

SMILES: COC(=O)c1[nH]c2ccc(Cl)cc2c1C(=O)c1cc(OC)c(O)c(OC)c1
- IC50 [9]: 6.7 µM
- IC50 [10]: 4.7 µM
- EC50 [11]: 4.6 µM
- IC50 [12]: 4.7 µM
- EC50 [13]: 4.6 µM
- IC50 [14]: 6.7 µM

SMILES: C=CCc1ccc(O)c(-c2ccc(O)c(CC=C)c2)c1 [HONOKIOL]
- Activity [15]: >90%
- Activity [16]: >90%

SMILES: C/C(=N\NC(N)=S)[C@H](Cc1c[nH]c2ccccc12)NC(=O)c1ccccc1
- EC50 [17]: 30 to 50 µM
- EC50 [18]: 30 to 50 µM
- EC50 [19]: 30 to 50 µM
- EC50 [20]: 30 to 50 µM

SMILES: O=C(O)[C@H]1O[C@@H](Oc2cc3oc(-c4ccccc4)cc(=O)c3c(O)c2O)[C@H](O)[C@@H](O)[C@@H]1O [BAICALIN]
- IC50 [21]: 13.5 µg/mL (≈ 30.2 µM)
- IC50 [22]: 8.74 µg/mL (≈ 19.6 µM)

SMILES: C=C[C@H]1CN2CC[C@H]1C[C@H]2[C@H](O)c1ccnc2ccc(OC)cc12 [QUININE]
- Activity [23]: 19%

SMILES: NCC(=O)Nc1ccc(-n2nc(C(F)(F)F)cc2-c2ccc3c(ccc4ccccc43)c2)cc1 [AR-12]
- EC50 [24]: 0.6 to 0.8 µM
- EC50 [25]: 0.6 to 0.8 µM
- EC50 [26]: 0.6 to 0.8 µM
- EC50 [27]: 0.6 to 0.8 µM

SMILES: O=c1c(O)c(-c2ccc(O)c(O)c2)oc2cc(O)cc(O)c12 [QUERCETIN]
- IC50 [28]: 176 µg/mL (≈ 583 µM)

SMILES: COc1cc2c(c(O)c1C)C(=O)CC(c1ccccc1)O2 (stereo unspecified) [STROBOPININ-7-METHYLETHER]
- EC50 [29]: 12.3 µM
- EC50 [30]: 3.72 µM

SMILES: COc1cc2c(c(OC)c1OC)-c1c(cc(OC)c(OC)c1OC)C[C@H](C)[C@H](C)C2 [SCHISANDRIN A]
- EC50 [31]: 28.1 µM

SMILES: C=C(C)[C@@H]1CC[C@]2(C)CC[C@]3(C)[C@H](CC[C@@H]4[C@@]5(C)CC[C@H](O)C(C)(C)[C@@H]5CC[C@]43C)[C@@H]12 [LUPEOL]
- EC50 [32]: 9.77 µM

SMILES: C[C@H]1CCC/C=C/[C@@H]2C[C@H](O)C[C@H]2[C@H](O)/C=C/C(=O)O1 [BREFELDIN A]
- EC50 [33]: 54.6 to 65.7 µM
- EC50 [34]: 54.6 to 65.7 µM
- EC50 [35]: 54.6 to 65.7 µM
- EC50 [36]: 54.6 to 65.7 µM
